Data published in PMC8049461, “The anti-depressant effects of a novel PDE4 inhibitor derived from resveratrol” (Pharmaceutical Biology, 2021).

How the values were obtained:
PDE1 = assay: PDE enzymatic assay (radioactive tracer, 3H-cAMP/3H-cGMP); format: biochemical; conditions: 3H-cAMP or 3H-cGMP substrate, 24 °C, 30 min; read-out: IC50 against PDE1
Description: (§1) All the enzymatic activities of PDEs were assayed by using ^3H- cyclic guanosine monophosphate (cGMP) or ^3H-cAMP as the substrate. PDEs were firstly incubated with the reaction mixture of 50 mmol/L Tris-hydrogen chloride (HCl), pH 7.8, 10 mmol/L magnesium chloride (MgCl2) and ^3H-cAMP or ^3H-cGMP (40, 000 cpm/assay) at 24 °C for 30 min. Then, the reaction was terminated by addition of zinc sulfate and barium hydroxide. Activity of test compounds was assessed by measuring the amount of ^3H-cGMP or ^3H-cAMP resulting from enzyme cleavage. The reaction product ^3H-AMP or ^3H-GMP was precipitated by adding barium sulfate, while unreacted ^3H-cAMP or ^3H-cGMP remained in the supernatant. Radioactivity in the supernatant was measured in 2.5 mL of ultima gold liquid scintillation. At least eight concentrations of inhibitors (0.05–500 μM) were used in the presence of suitable substrates for the measurement of half maximal inhibitory concentration IC50 values, which were calculated by non-linear regression. Each measurement was repeated three times.

PDE2 = PDE2 (Homo sapiens, UniProt O00408); assay: as above; format: biochemical; conditions: 3H-cAMP or 3H-cGMP substrate, 24 °C, 30 min; read-out: IC50 against PDE2
Description: as §1

PDE3 = assay: as above; format: biochemical; conditions: 3H-cAMP or 3H-cGMP substrate, 24 °C, 30 min; read-out: IC50 against PDE3
Description: as §1

PDE4 = assay: as above; format: biochemical; conditions: for IC50: 3H-cAMP or 3H-cGMP substrate, 24 °C, 30 min, read-out: IC50 against PDE4
Description: as §1

PDE5 = PDE5 (Homo sapiens, UniProt O76074); assay: as above; format: biochemical; conditions: 3H-cAMP or 3H-cGMP substrate, 24 °C, 30 min; read-out: IC50 against PDE5
Description: as §1

[1] = tested on: chronic unpredictable stress mice; assay: Sucrose preference test (SPT) after chronic unpredictable stress; format: in vivo, male ICR mice; conditions: RES003 5 and 10 mg/kg (medium and large dose), once a day for 10 days, CUS mice, vs model group, p < 0.01
Description: (§2) Male ICR mice, weighing between 22–25 g, were obtained from the Animal Centre at Changzhou University. All experiments were carried out according to the National Institute of Health Guide for Care and Use of Laboratory Animals (1996) and were approved by the Institutional Animal Care and Use Committee of Changzhou University (NO. Y20180023). Fluoxetine and resveratrol were purchased from Sigma Chemical Co. (St Louis, MO). For animal behavioural tests, RES003 and rolipram were dissolved in saline containing 5% DMSO, 5% Solutol and 90% saline. The positive control drug fluoxetine was dissolved simply in saline. Mice were given intra-gastric (i.g.) administration (RES003: 2.5, 5.0 and 10 mg/kg) or intraperitoneal (i.p.) injections (fluoxetine: 5 mg/kg and rolipram: 10 mg/kg) in a volume of 10 mL/kg body weight.
(§3) The chronic unpredictable stress procedure was carried out as described previously with minor modification (Polster and Fiskum [2004]). […]
(§4) After the chronic un-predictable stress (CUS) procedure, sucrose preference test was assessed on the following day, and then forced swimming test (FST) was carried out the next day. […]
The SPT was performed according to the previous description with minor modification (Yu et al. [2013]). […] The sucrose preference was calculated as the ratio of the consumed sucrose solution to the total amount of liquid consumed.

mice = assay: Locomotor activity (LA) test, open-field chamber; format: in vivo, male ICR mice; conditions: RES003 at the dose that significantly reduced immobility response, 30 min before test
Description: as §2
LA test was assessed using an open-field chamber according to previous procedure (Li et al. [2014]). The floor of the chamber was divided into 16 identical squares. Mice were individually placed in the centre of the chamber and allowed to acclimatize for 15 min. Their paws were contacted or disconnected the active bars which can produce random configurations. The locomotor counts of mice were measured by counting the number of line crossings in the following 10 min.

pCREB/CREB = assay: Western blot of pCREB/CREB in brain tissue of CUS mice; format: in vivo, male ICR mice; conditions: RES003 10 mg/kg, vs model group, p < 0.05
Description: as §2, §3, §4
(§5) The brain tissues were dissected and stored at −80 °C until analysis after mice were sacrificed. […] The detection and quantification of specific bands were performed using a fluorescence scanner and ‘Image-Pro’ software. […]

BDNF = assay: Western blot of BDNF expression in brain tissue of CUS mice; format: in vivo, male ICR mice; conditions: RES003 5 and 10 mg/kg, vs model group, p < 0.05 and 0.01
Description: as §2, §3, §4, §5

[2] = tested on: chronic unpredictable stress mice; assay: Forced swimming test (FST) after chronic unpredictable stress; format: in vivo, male ICR mice; conditions: fluoxetine 5 mg/kg i.p., CUS mice, p < 0.05
Description: as §2, with “Mice were given intra-gastric (i.g.) administration (RES003: 2.5, 5.0 and 10 mg/kg) or intraperitoneal (i.p.) injections (fluoxetine: 5 mg/kg and rolipram: 10 mg/kg) in a volume of 10 mL/kg body weight.” left out
as §4
According to the previous description, animals were individually placed in glass cylinders (25 cm height, 10 cm diameter) containing 10 cm depth of water at 24 ± 1 °C for 6 min, allowing for free swimming (Porsolt et al. [1978]). […] A mouse was determined to be immobile when there were only small movements necessary to keep its head above water. The immobility time was recorded during the 5 min testing period.

PDE2, sequence (O00408 whole entry): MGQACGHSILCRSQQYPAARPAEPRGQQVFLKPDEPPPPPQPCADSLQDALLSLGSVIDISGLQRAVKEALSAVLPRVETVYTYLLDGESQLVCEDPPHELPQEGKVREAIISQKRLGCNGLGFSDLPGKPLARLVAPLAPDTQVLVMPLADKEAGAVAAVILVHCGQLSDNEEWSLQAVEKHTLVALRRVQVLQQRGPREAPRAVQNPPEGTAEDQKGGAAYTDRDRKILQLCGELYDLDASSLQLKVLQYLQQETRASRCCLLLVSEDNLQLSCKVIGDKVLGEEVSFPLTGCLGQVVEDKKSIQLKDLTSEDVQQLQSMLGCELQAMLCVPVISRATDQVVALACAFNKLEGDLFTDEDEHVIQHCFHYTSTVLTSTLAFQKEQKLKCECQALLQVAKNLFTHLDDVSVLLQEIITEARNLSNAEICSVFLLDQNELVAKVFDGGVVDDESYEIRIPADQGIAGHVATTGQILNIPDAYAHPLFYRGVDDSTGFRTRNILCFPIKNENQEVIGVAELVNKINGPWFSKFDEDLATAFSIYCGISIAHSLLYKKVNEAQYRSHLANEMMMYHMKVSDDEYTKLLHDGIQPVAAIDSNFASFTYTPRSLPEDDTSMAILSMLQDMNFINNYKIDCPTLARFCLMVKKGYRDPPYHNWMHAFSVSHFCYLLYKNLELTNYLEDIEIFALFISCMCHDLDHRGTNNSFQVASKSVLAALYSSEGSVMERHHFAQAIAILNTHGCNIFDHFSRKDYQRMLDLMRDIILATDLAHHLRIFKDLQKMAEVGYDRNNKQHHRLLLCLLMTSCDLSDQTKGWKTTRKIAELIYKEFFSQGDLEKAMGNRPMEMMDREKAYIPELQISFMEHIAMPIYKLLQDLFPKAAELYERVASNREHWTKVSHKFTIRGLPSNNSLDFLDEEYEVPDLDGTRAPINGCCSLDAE

IC50 (PDE1) [µM] | IC50 (PDE2) [µM] | IC50 (PDE3) [µM] | IC50 (PDE4) [µM] | IC50 (PDE5) [µM] | locomotor activity (line crossings in 10 min) (mice) | SMILES | selectivity for PDE4 over PDE1, PDE2, PDE3 and PDE5 (PDE4; ratio of IC50 values) [fold] | consumption of sugar water (sucrose preference) [1] | ratio of pCREB/CREB in brain tissue (pCREB/CREB) | BDNF expression in brain tissue (BDNF) | immobility time in forced swimming test [2]
92.6 ± 8.3 | > 100 | > 100 | 0.87 | > 100 | did not affect the locomotor activity | Oc1ccc(-c2cc(-c3cc(O)cc(O)c3)n[nH]2)cc1 [RES003, 5-[5-(4-Hydroxyphenyl)-1H-pyrazol-3-yl]benzene-1,3-diol] | > 100 | significantly increase the consumption of sugar water | reversed | significantly upregulated | –
8.7 ± 1.1 | > 100 | 12.7 ± 2.1 | 18.8 | > 100 | – | Oc1ccc(/C=C/c2cc(O)cc(O)c2)cc1 [resveratrol, Resveratrol] | – | – | – | – | –
– | – | – | – | – | – | CNCCC(Oc1ccc(C(F)(F)F)cc1)c1ccccc1 (stereo not shown) [fluoxetine, Fluoxetine, reference compound] | – | – | – | – | significant anti-depressant-like effects
